Assay results from PubChem BioAssay AID248 (DTP/NCI, 2004).
Several values for one entry are separate records, joined by “and”; a condition that tells them apart may be missing. Identical values can stand only once. Inconclusive results and toxic doses are left out.

Test system: L1210 leukemia ip in BDF1 mice, survival T/C
Assay: NCI In Vivo Anticancer Drug Screen. Data for tumor model L1210 Leukemia (intraperitoneal) in B6D2F1 (BDF1) mice
Details: endpoint: mean survival time, higher = longer survival
In short: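 Mice bearing the transplanted tumor received compound or vehicle. Survival of the treated group was divided by that of the vehicle-treated control group to give the ratio.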

[1] = dose: 100.0 mg/kg/injection, schedule: Q04DX002 (ip), vehicle: Klucel (hydroxypropylcellulose) (HPC)
[2] = dose: 200.0 mg/kg/injection, schedule: Q04DX002 (ip), vehicle: Klucel (hydroxypropylcellulose) (HPC)
[3] = dose: 400.0 mg/kg/injection, schedule: Q04DX002 (ip), vehicle: Klucel (hydroxypropylcellulose) (HPC)
[4] = dose: 100.0 mg/kg/injection, schedule: Q04DX003 (ip), vehicle: saline with Tween-80
[5] = dose: 200.0 mg/kg/injection, schedule: Q04DX003 (ip), vehicle: saline with Tween-80
[6] = dose: 400.0 mg/kg/injection, schedule: Q04DX003 (ip), vehicle: saline with Tween-80
[7] = dose: 25.0 mg/kg/injection, schedule: Q01DX009 (ip), vehicle: Klucel (hydroxypropylcellulose) (HPC)
[8] = dose: 50.0 mg/kg/injection, schedule: Q01DX009 (ip), vehicle: Klucel (hydroxypropylcellulose) (HPC)
[9] = dose: 100.0 mg/kg/injection, schedule: Q01DX001 (ip), vehicle: saline
[10] = dose: 200.0 mg/kg/injection, schedule: Q01DX001 (ip), vehicle: saline
[11] = dose: 400.0 mg/kg/injection, schedule: Q01DX001 (ip), vehicle: saline
[12] = dose: 100.0 mg/kg/injection, schedule: Q01DX009 (ip), vehicle: Klucel (hydroxypropylcellulose) (HPC)
[13] = dose: 200.0 mg/kg/injection, schedule: Q01DX009 (ip), vehicle: Klucel (hydroxypropylcellulose) (HPC)
[14] = dose: 100.0 mg/kg/injection, schedule: Q01DX009 (ip), vehicle: saline with Tween-80
[15] = dose: 200.0 mg/kg/injection, schedule: Q01DX009 (ip), vehicle: saline with Tween-80
[16] = dose: 12.5 mg/kg/injection, schedule: Q01DX Z (ip), vehicle: carboxymethylcellulose (CMC)
[17] = dose: 25.0 mg/kg/injection, schedule: Q01DX Z (ip), vehicle: carboxymethylcellulose (CMC)
[18] = dose: 50.0 mg/kg/injection, schedule: Q01DX Z (ip), vehicle: carboxymethylcellulose (CMC)
[19] = dose: 100.0 mg/kg/injection, schedule: Q01DX001 (ip), vehicle: carboxymethylcellulose (CMC)
[20] = dose: 200.0 mg/kg/injection, schedule: Q01DX001 (ip), vehicle: carboxymethylcellulose (CMC)
[21] = dose: 400.0 mg/kg/injection, schedule: Q01DX001 (ip), vehicle: carboxymethylcellulose (CMC)
[22] = dose: 400.0 mg/kg/injection, schedule: Q01DX009 (ip), vehicle: saline with Tween-80

Compound: CCOC(=O)C(Cc1c[nH]c2ccccc12)NC(C)=O (configuration not stated)
- T/C [1]: 106 % of control
- T/C [2]: 100 % of control
- T/C [3]: 95 % of control

Compound: O=C1CCC2=C(CCCCCC2)N1c1ccccc1
- T/C [4]: 110 % of control
- T/C [5]: 110 % of control
- T/C [6]: 98 % of control

Compound: COc1cc([N+](=O)[O-])ccc1NC(=O)Oc1ccccc1C(N)=O
- T/C (dose: 12.5 mg/kg/injection, schedule: Q01DX009 (ip), vehicle: Klucel (hydroxypropylcellulose) (HPC)): 102 % of control
- T/C [7]: 100 % of control
- T/C [8]: 98 % of control

Compound: NC1C(=O)NC(=O)NC1=S (configuration not stated)
- T/C (dose: 29.0 mg/kg/injection, schedule: Q01DX Z (ip), vehicle: methylcellulose (MC)): 100 % of control
- T/C (dose: 45.0 mg/kg/injection, schedule: Q01DX Z (ip), vehicle: methylcellulose (MC)): 107 % of control

Compound: C(OC[C@H]1CC[C@@H](COCC2CO2)O1)C1CO1 (some centres not stated)
- T/C [9]: 112 % of control
- T/C (dose: 108.0 mg/kg/injection, schedule: Q01DX007 (ip), vehicle: saline): 120 % of control
- T/C (dose: 178.0 mg/kg/injection, schedule: Q01DX001 (ip), vehicle: saline): 106 % of control and 110 % of control
- T/C [10]: 109 % of control
- T/C (dose: 267.0 mg/kg/injection, schedule: Q01DX001 (ip), vehicle: saline): 114 % of control and 115 % of control
- T/C [11]: 114 % of control
- T/C (dose: 600.0 mg/kg/injection, schedule: Q01DX001 (ip), vehicle: saline): 98 % of control

Compound: O=C(Nc1ccc([N+](=O)[O-])cc1Cl)SCCSC(=O)Nc1ccc([N+](=O)[O-])cc1Cl
- T/C [12]: 114 % of control
- T/C [13]: 94 % of control
- T/C (dose: 400.0 mg/kg/injection, schedule: Q01DX009 (ip), vehicle: Klucel (hydroxypropylcellulose) (HPC)): 105 % of control

Compound: Cc1ccc(Cl)cc1NS(=O)(=O)c1cccc([N+](=O)[O-])c1
- T/C [14]: 94 % of control
- T/C [15]: 90 % of control

Compound: c1ccc2n[se]nc2c1
- T/C (dose: 12.5 mg/kg/injection, schedule: Q04DX003 (ip), vehicle: saline): 86 % of control
- T/C (dose: 25.0 mg/kg/injection, schedule: Q04DX003 (ip), vehicle: saline): 103 % of control

Compound: CCOC(=O)Cc1c(C(=O)OCC)nnn1-c1ccc([N+](=O)[O-])cc1
- T/C [1]: 97 % of control
- T/C [2]: 97 % of control
- T/C [3]: 93 % of control

Compound: CS(=O)(=O)OCCCCCCCCCOS(C)(=O)=O
- T/C [7]: 96 % of control
- T/C [8]: 103 % of control
- T/C (dose: 75.0 mg/kg/injection, schedule: Q01DX001 (ip), vehicle: other): 95 % of control
- T/C [12]: 105 % of control
- T/C (dose: 150.0 mg/kg/injection, schedule: Q01DX001 (ip), vehicle: other): 108 % of control

Compound: CCCn1cnc2c(=S)nc[nH]c21
- T/C [16]: 108 % of control
- T/C [17]: 102 % of control
- T/C (dose: 37.5 mg/kg/injection, schedule: Q04DX003 (ip), vehicle: Klucel (hydroxypropylcellulose) (HPC)): 97 % of control
- T/C [18]: 104 % of control
- T/C (dose: 75.0 mg/kg/injection, schedule: Q04DX003 (ip), vehicle: Klucel (hydroxypropylcellulose) (HPC)): 103 % of control
- T/C (dose: 150.0 mg/kg/injection, schedule: Q04DX003 (ip), vehicle: Klucel (hydroxypropylcellulose) (HPC)): 123 % of control
- T/C (dose: 300.0 mg/kg/injection, schedule: Q04DX003 (ip), vehicle: Klucel (hydroxypropylcellulose) (HPC)): 151 % of control

Compound: CN(N=O)C(=O)NCCc1ccccc1
- T/C (dose: 6.25 mg/kg/injection, schedule: Q01DX Z (ip), vehicle: carboxymethylcellulose (CMC)): 101 % of control
- T/C [16]: 112 % of control
- T/C [17]: 93 % of control
- T/C [18]: 98 % of control
- T/C (dose: 100.0 mg/kg/injection, schedule: Q01DX Z (ip), vehicle: carboxymethylcellulose (CMC)): 109 % of control
- T/C (dose: 200.0 mg/kg/injection, schedule: Q01DX Z (ip), vehicle: carboxymethylcellulose (CMC)): 98 % of control
- T/C (dose: 400.0 mg/kg/injection, schedule: Q01DX Z (ip), vehicle: carboxymethylcellulose (CMC)): 108 % of control

Compound: Cc1cn(C2OC(CO)C(O[Si](C)(C)C)C(O[Si](C)(C)C)C2O[Si](C)(C)C)c(=O)[nH]c1=O (configuration not stated)
- T/C [9]: 97 % of control
- T/C [10]: 94 % of control
- T/C [11]: 97 % of control

Compound: CC(=O)NC(C)(C)C#N
- T/C [1]: 93 % of control
- T/C [2]: 96 % of control
- T/C [3]: 107 % of control

Compound: c1ccc2c(c1)Cc1ccccc1C2
- T/C (dose: 100.0 mg/kg/injection, schedule: Q04DX002 (ip), vehicle: other): 110 % of control
- T/C (dose: 200.0 mg/kg/injection, schedule: Q04DX002 (ip), vehicle: other): 94 % of control
- T/C (dose: 400.0 mg/kg/injection, schedule: Q04DX002 (ip), vehicle: other): 113 % of control

Compound: COc1ccc(C(=O)Nc2ccc(F)cc2)cc1
- T/C (dose: 100.0 mg/kg/injection, schedule: Q01DX009 (ip), vehicle: carboxymethylcellulose (CMC)): 100 % of control and 105 % of control
- T/C [1]: 115 % of control
- T/C (dose: 100.0 mg/kg/injection, schedule: Q04DX002 (ip), vehicle: carboxymethylcellulose (CMC)): 103 % of control
- T/C (dose: 100.0 mg/kg/injection, schedule: Q04DX003 (ip), vehicle: carboxymethylcellulose (CMC)): 101 % of control
- T/C (dose: 200.0 mg/kg/injection, schedule: Q01DX009 (ip), vehicle: carboxymethylcellulose (CMC)): 94 % of control and 89 % of control
- T/C [2]: 102 % of control
- T/C (dose: 200.0 mg/kg/injection, schedule: Q04DX002 (ip), vehicle: carboxymethylcellulose (CMC)): 93 % of control and 95 % of control
- T/C (dose: 200.0 mg/kg/injection, schedule: Q04DX003 (ip), vehicle: carboxymethylcellulose (CMC)): 106 % of control
- T/C (dose: 400.0 mg/kg/injection, schedule: Q01DX009 (ip), vehicle: carboxymethylcellulose (CMC)): 87 % of control
- T/C [3]: 108 % of control
- T/C (dose: 400.0 mg/kg/injection, schedule: Q04DX002 (ip), vehicle: carboxymethylcellulose (CMC)): 93 % of control and 100 % of control
- T/C (dose: 400.0 mg/kg/injection, schedule: Q04DX003 (ip), vehicle: carboxymethylcellulose (CMC)): 102 % of control

Compound: CCOC(=O)/C(N=O)=C(/O)c1ccncc1
- T/C (dose: 100.0 mg/kg/injection, schedule: Q04DX003 (ip), vehicle: Klucel (hydroxypropylcellulose) (HPC)): 96 % of control
- T/C (dose: 200.0 mg/kg/injection, schedule: Q04DX003 (ip), vehicle: Klucel (hydroxypropylcellulose) (HPC)): 102 % of control

Compound: COC(=O)C1(C)COP(=O)(Nc2ccc(Br)cc2)OC1 (configuration not stated)
- T/C [9]: 96 % of control
- T/C [10]: 86 % of control
- T/C [11]: 91 % of control

Compound: CC(C)CCO[Si](C)(C)CCl
- T/C (dose: 50.0 mg/kg/injection, schedule: Q01DX001 (ip), vehicle: carboxymethylcellulose (CMC)): 103 % of control
- T/C [19]: 103 % of control
- T/C [20]: 97 % of control
- T/C [21]: 103 % of control

Compound: Cc1ccc(N=C(C(=Nc2ccc(C)cc2)c2ccccc2)c2ccccc2)cc1
- T/C [4]: 91 % of control
- T/C [5]: 90 % of control
- T/C [6]: 88 % of control

Compound: CNS(=O)(=O)c1ccccc1C(=N)c1ccccc1
- T/C [9]: 97 % of control
- T/C [10]: 97 % of control
- T/C [11]: 100 % of control

Compound: Cc1ccc(NC(=O)OC/C=C/c2ccccc2)cc1NC(=O)OC/C=C/c1ccccc1
- T/C [13]: 93 % of control

Compound: CC(=O)OC1CC2CCC1C2Br (configuration not stated)
- T/C [19]: 95 % of control
- T/C [20]: 93 % of control
- T/C [21]: 90 % of control

Compound: CCCCCCC(C)O[Si](C)c1ccc(C)cc1 (configuration not stated)
- T/C [14]: 103 % of control
- T/C [4]: 113 % of control
- T/C [15]: 90 % of control
- T/C [5]: 97 % of control
- T/C [22]: 97 % of control
- T/C [6]: 87 % of control

Compound: COC(=O)C1(C(=O)OC)C2C(=O)C3C(C21)C3(C(=O)OC(C)(C)C)C(=O)OC(C)(C)C (configuration not stated)
- T/C [14]: 95 % of control
- T/C [4]: 101 % of control and 98 % of control
- T/C [15]: 92 % of control
- T/C [5]: 102 % of control and 88 % of control
- T/C [22]: 92 % of control
- T/C [6]: 91 % of control and 111 % of control

Compound: CCOC(=N)c1cc([N+](=O)[O-])cc([N+](=O)[O-])c1
- T/C [9]: 102 % of control
- T/C [10]: 104 % of control
- T/C [11]: 102 % of control
